{"source": "patent US12338287B2", "about": "“Treatment of cancer using a CD33 chimeric antigen receptor” (Novartis AG, priority 2014, dated 2025)", "molecules": {"B1": {"name": "CD33-UPenn: an scFv based on the sequence of Mylotarg, a monoclonal antibody that binds to the human CD33 antigen (protein)", "chain": "EIVLTQSPGSLAVSPGERVTMSCKSSQSVFFSSSQKNYLAWYQQIPGQSPRLLIYWASTRESGVPDRFTGSGSGTDFTLTISSVQPEDLAIYYCHQYLSSRTFGQGTKLEIKRGGGGSGGGGSSGGGSQVQLQQPGAEVVKPGASVKMSCKASGYTFTSYYIHWIKQTPGQGLEWVGVIYPGNDDISYNQKFQGKATLTADKSSTTAYMQLSSLTSEDSAVYYCAREVRLRYFDVWGQGTTVTVSS", "modifications": "left off: small tags and cut ends"}, "B2": {"name": "CD33-8: fully human anti-CD33 scFv CAR with 4-1BB and CD3zeta; full CAR SEQ ID NO: 55, scFv SEQ ID NO: 46 (protein)", "chain": "MALPVTALLLPLALLLHAARPQVQLVQSGAEVKKPGASVRVSCKASGYMFTDFFIHWVRQAPGQGLEWMGWINPNSGVTKYAQKFQGRVTMTRNTSISTAYMELSSLRSEDTAVYYCATWYSSGWYGIANIWGQGTMVTVSSASGGGGSGGGGSGGGGSDIQLTQSPSSLSASVGDRVTITCQASHDISNYLHWYQQKPGKAPKLLIYDASNLETGVPSRFTGSGSGTDFTLTIRSLQPEDVAAYYCQQSDDLPHTFGQGTKVDIKTTTPAPRPPTPAPTIASQPLSLRPEACRPAAGGAVHTRGLDFACDIYIWAPLAGTCGVLLLSLVITLYCKRGRKKLLYIFKQPFMRPVQTTQEEDGCSCRFPEEEEGGCELRVKFSRSADAPAYKQGQNQLYNELNLGRREEYDVLDKRRGRDPEMGGKPRRKNPQEGLYNELQKDKMAEAYSEIGMKGERRRGKGHDGLYQGLSTATKDTYDALHMQALPPR"}}, "key": {"[1]": {"system": "huCART19 cells co-cultured with Nalm-6", "test": "Effect of RAD001 on CART proliferation, 4 day co-culture", "assay_type": "cell-based, human", "method": "To evaluate the functionality of CARTs, the T cells are thawed and counted, and viability is assessed by Cellometer. The number of CAR-positive cells in each culture is normalized using non-transduced T cells (UTD). The impact of RAD001 on CARTs was tested in titrations with RAD001, starting at 50 nM. The target cell line used in all co-culture experiments is Nalm-6, a human pre-B cell acute lymphoblastic leukemia (ALL) cell line expressing CD19 and transduced to express luciferase.\nFor measuring the proliferation of CARTs, T cells are cultured with target cells at a ratio of 1:1. The assay is run for 4 days, when cells are stained for CD3, CD4, CD8 and CAR expression. The number of T cells is assessed by flow cytometry using counting beads as reference."}, "[2]": {"test": "RAD001 PK analysis in tumor bearing mice", "assay_type": "in vivo, NSG mice", "details": "for concentration at 24 h: NSG, mouse, whole blood", "method": "(§1) RAD001 dosing: A concentrated micro-emulsion of 50 mg equal to 1 mg RAD001 was formulated and then resuspended in D5W (dextrose 5% in water) at the time of dosing. Mice were orally dosed daily (via oral gavage) with 200 μl of the desired doses of RAD001.\nPK analysis: Mice were dosed daily with RAD001 starting 7 days post tumor implantation. Dosing groups were as follows: 0.3 mg/kg, 1 mg/kg, 3 mg/kg, and 10 mg/kg. Mice were bled on days 0 and 14 following the first and last dose of RAD001, at the following time points for PK analysis: 15 minutes, 30 minutes, 1 hour, 2 hours, 4 hours, 8 hours, 12 hours, and 24 hours."}, "[3]": {"system": "CAR-expressing, transduced T cells", "test": "CART proliferation in co-culture with Nalm-6 cells in presence of RAD001", "assay_type": "cell-based", "details": "CARTs co-cultured with Nalm-6 cells, different concentrations of RAD001, 4 days", "method": "CARTs were co-cultured with Nalm-6 cells in the presence of different concentrations of RAD001. The number of CAR-positive CD3-positive T cells (black) and total T cells (gray) was assessed after 4 days of co-culture."}, "[4]": {"system": "humanized CD19 CART cells", "test": "In vivo proliferation of humanized CD19 CART cells with and without RAD001", "details": "0.003 mg/kg daily with huCTL019; CD4+ and CD8+ CAR T cells", "method": "FIGS. 57A and 57B show in vivo proliferation of humanized CD19 CART cells with and without RAD001 dosing. […] Circles denote PBS; squares denote huCTL019; triangles denote huCTL019 with 3 mg/kg RAD001; inverted triangles denote huCTL019 with 0.3 mg/kg RAD001; diamonds denote huCTL019 with 0.03 mg/kg RAD001; and circles denote huCTL019 with 0.003 mg/kg RAD001."}, "huCAR19 CAR T cells": {"system": "huCAR19 CAR T cells", "test": "CAR T cell expansion in vivo with RAD001 (FACS)", "set-up": "species or system NSG mice", "details": "lowest doses of RAD001, daily oral; FIG. 57", "method": "CAR T cell dosing: Mice were administered 5×10^6 CAR T cells 7 days after tumor implantation. Cells were partially thawed in a 37 degree Celsius water bath and then completely thawed by the addition of 1 ml of cold sterile PBS to the tube containing the cells. The thawed cells were transferred to a 15 ml falcon tube and adjusted to a final volume of 10 mls with PBS. The cells were washed twice at 1000 rpm for 10 minutes each time and then counted on a hemocytometer. T cells were then resuspended at a concentration of 50×10^6 CAR T cells per ml of cold PBS and kept on ice until the mice were dosed. The mice were injected intravenously via the tail vein with 100 μl of the CAR T cells for a dose of 5×10^6 CAR T cells per mouse. Eight mice per group were treated either with 100 μl of PBS alone (PBS), or humanized CD19 CAR T cells.\nas §1\nBased on these doses, huCAR19 CAR T cells were dosed with and without RAD001 to determine the proliferative ability of these cells. The highest dose used was 3 mg/kg based on the levels of RAD001 in the blood 24 hours after dosing. […] Mice were monitored via FACS for T cell expansion."}, "NALM6-luc tumors": {"system": "NALM6-luc tumors", "test": "RAD001 alone on NALM6-luc tumor growth", "assay_type": "in vivo, NSG mice", "details": "daily oral dosing of RAD001 alone; FIG. 55", "method": "NALM6-luc cells: The NALM6 human acute lymphoblastic leukemia (ALL) cell line was developed from the peripheral blood of a patient with relapsed ALL. The cells were then tagged with firefly luciferase. These suspension cells grow in RPMI supplemented with 10% heat inactivated fetal bovine serum.\nMice: 6 week old NSG (NOD.Cg-Prkdc^scidIl2rg^tmIWjl/SzJ) mice were received from the Jackson Laboratory (stock number 005557).\nTumor implantation: NALM6-luc cells were grown and expanded in vitro in RPMI supplemented with 10% heat inactivated fetal bovine serum. The cells were then transferred to a 15 ml conical tube and washed twice with cold sterile PBS. NALM6-luc cells were then counted and resuspended at a concentration of 10×10^6 cells per milliliter of PBS. The cells were placed on ice and immediately (within one hour) implanted in the mice. NALM6-luc cells were injected intravenously via the tail vein in a 100 μl volume, for a total of 1×10^6 cells per mouse.\nas §1"}, "MOLM13": {"system": "MOLM13", "test": "NFAT-dependent luciferase reporter activation of JNL cells", "assay_type": "cell-based", "details": "JNL cells co-cultured with MOLM13 relative to MOLP8 or GFP JNL cells; 24 hours", "description": "FIGS. 28A, 28B, 28C, and 28D are images showing the ability of individual scFv's targeting hsCD33 to elicit NFAT activity in JNL cells. JNL cells expressing scFv's against hsCD33 were co-cultured with MOLM13 or MOLP8 cell lines, which express hsCD33 or lack hsCD33 cell surface expression, respectively (FIG. 28A; hsCD33, solid green line; isotype control, gray dashed line and shaded area). FIG. 28B depicts the activation of JNL cells expressing an scFv targeting hsCD33 in the presence of MOLM13 (solid lines) or MOLP8 (dashed lines) cells. JNL cells expressing individual scFv's were plated at different effector (i.e. JNL cells) to target (i.e. MOLM13 or MOLP8) ratios and analyzed for the expression of relative luciferase units (RLUs) using the Bright-Glo™ Luciferase Assay on the EnVision instrument 24 hours post-incubation. FIG. 28C is a version of FIG. 28B, depicting the activation of JNL cells in the presence of MOLM13. […]\nIndividual scFv's targeting hsCD33 were evaluated for their ability to elicit NFAT activity in JNL cells (FIG. 28). […] JNL cells expressing individual scFv's were plated at different effector (i.e. JNL cells) to target (i.e. MOLM13 or MOLP8) ratios and analyzed for the expression of relative luciferase units (RLUs) using the Bright-Glo™ Luciferase Assay on the EnVision instrument 24 hours post-incubation."}, "[5]": {"molecular_target": "recombinant Fc-tagged hsCD33 (Homo sapiens, UniProt P20138)", "sequence (P20138 18-259 limits assumed)": "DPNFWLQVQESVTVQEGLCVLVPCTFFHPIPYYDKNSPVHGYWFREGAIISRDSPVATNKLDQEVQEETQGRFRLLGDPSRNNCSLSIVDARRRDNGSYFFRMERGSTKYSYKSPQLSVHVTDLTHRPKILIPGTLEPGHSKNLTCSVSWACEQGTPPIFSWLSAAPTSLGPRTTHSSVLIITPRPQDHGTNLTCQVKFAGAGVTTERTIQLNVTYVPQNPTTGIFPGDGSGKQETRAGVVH", "test": "scFv binding to recombinant CD33 by flow cytometry (JNL cells)", "details": "scFv on JNL cells, Fc-tagged hsCD33, PE secondary; FIG. 32", "method": "Finally, scFv cross-reactivity to cynomolgus CD33 (cyCD33) was assessed by flow cytometry as depicted in FIG. 32. JNL cells transduced with a lentiviral vector expressing scFv's raised against hsCD33 were incubated with either recombinant Fc-tagged hsCD33 (red line) or cyCD33 (blue line) followed by incubation with an Fc-specific secondary antibody conjugated to phycoerythrin."}, "protein L": {"system": "protein L", "test": "Protein L binding of scFv on JNL cells", "details": "data not shown"}, "hsCD33": {"molecular_target": "hsCD33 (Homo sapiens, UniProt P20138)", "sequence (P20138 18-259 limits assumed)": "as above", "test": "Cell surface scFv on JNL cells detected with recombinant Fc-tagged hsCD33", "assay_type": "binding", "details": "recombinant Fc-tagged hsCD33, PE secondary antibody; relative to GFP or CD19 scFv JNL cells", "method": "(§2) FIG. 27 is an image depicting the cell surface expression of scFvs on a Jurkat T cell line, which contains a luciferase reporter driven by an NFAT-regulated promoter (termed JNL cells). JNL cells were transduced with a lentiviral vector expressing a cDNA encoding GFP, a scFv that binds to CD19, or cDNAs that encode an scFv, which was raised against hsCD33. The cell surface expression of individual scFv's on JNLs was detected by incubating cells with recombinant Fc-tagged hsCD33 followed by incubation with an Fc-specific secondary antibody conjugated to phycoerythrin.\nas §2, with “To depict the” for “FIG. 27 is an image depicting the”, “of scFv's” for “of scFvs”, “JNL cells),” for “JNL cells).”, “GFP, an” for “GFP, a”, “against hsCD33 (FIG. 27).” for “against hsCD33.”"}}, "note": "Where two headings read alike, the source gives them in different places."}
{"molecule": "CO[C@H]1C[C@@H]2CC[C@@H](C)[C@@](O)(O2)C(=O)C(=O)N2CCCC[C@H]2C(=O)O[C@H]([C@H](C)C[C@@H]2CC[C@@H](OCCO)[C@H](OC)C2)CC(=O)[C@H](C)/C=C(\\C)[C@@H](O)[C@@H](OC)C(=O)[C@H](C)C[C@H](C)/C=C/C=C/C=C/1C", "note": "[RAD001, (1R,9S,12S,15R,16E,18R,19R,21R,23 S,24E,26E,28E,30S,32S,35R)-1,18-dihydroxy-12-{(1R)-2-[(1 S,3R,4R)-4-(2-hydroxyethoxy)-3-methoxycyclohexyl]-1-methylethyl}-19,30-dimethoxy-15,17,21,23,29,35-hexamethyl-11,36-dioxa-4-aza-tricyclo[30.3.1.04,9]hexatriaconta-16,24,26,28-tetraene-2,3,10,14,20-pentaone]", "values": [{"measurement": "Proliferation of huCART19 cells", "setting": "[1]; 0.0032 and 0.016 nM RAD001, 4 day co-culture with Nalm-6, FIG. 54", "result": "proliferation was higher than observed without the addition of RAD001"}, {"measurement": "RAD001 concentration at which huCART19 cells expanded", "setting": "[1]; 4 day co-culture with Nalm-6", "result": "less than 0.016 nM"}, {"measurement": "concentration at 24 h", "setting": "[2]; oral, 0.3 mg/kg, 24 hours after the final dose of RAD001, read-out: Concentration of RAD001", "result": "> 0.01", "unit": "µM"}, {"measurement": "concentration at 24 h", "setting": "[2]; 24 hours after dosing, 0.3 mg/kg oral, day 0 and day 14, read-out: RAD001 concentrations in the blood", "result": "> 0.01", "unit": "µM"}, {"measurement": "Stability in the blood", "setting": "[2]; tumor bearing mice, FIGS. 56A, 56B", "result": "fairly stable in the blood"}, {"measurement": "Proliferation of CAR-expressing, transduced T cells", "setting": "[3]", "result": "enhanced by low doses of RAD001"}, {"measurement": "CAR T cell proliferation in vivo", "setting": "[4]", "result": "enhancement in CAR T cell proliferation, above the normal level of huCAR19 proliferation"}, {"measurement": "Proliferation of the CAR T cells in vivo", "setting": "huCAR19 CAR T cells", "result": "enhanced proliferation of the CAR T cells"}, {"measurement": "Growth of NALM6-luc tumors", "setting": "NALM6-luc tumors", "result": "did not have an impact on the growth of NALM6-luc tumors"}]}
{"molecule": "B1", "values": [{"measurement": "NFAT-dependent luciferase activity (RLUs)", "setting": "MOLM13", "result": "capable of triggering NFAT-dependent luciferase activity"}, {"measurement": "Binding of hsCD33", "setting": "[5]", "result": "capable of binding hsCD33"}]}
{"molecule": "B2", "values": [{"measurement": "Binding to protein L", "setting": "protein L", "result": "lacked appreciable binding to either hsCD33 or protein L"}, {"measurement": "Binding to hsCD33 (cell surface scFv on JNL cells)", "setting": "hsCD33", "result": "lacked appreciable binding to either hsCD33 or protein L"}]}
